Data: patent US9234000B2, “Benzylamine derivatives as inhibitors of plasma kallikrein” (KalVista Pharmaceuticals Limited, priority 2011, dated 2016)
≈ marks a conversion by molar mass, not a printed value. Like-named read-outs stand apart in the source and are kept apart here.

Legend:
[1] = physchem; conditions: pH 7, aqueous buffer, kinetic from dmso stock
Procedure: Determination of the Kinetic Solubility in Phosphate Buffer
After shaking for approximately 30 seconds the reduction in light transmission of these samples, at 650 nm, was measured (Molecular Devices Spectromax UV/visible spectrophotometer). A second measurement was taken at approximately 30 seconds later.

[2] = target: Human plasma kallikrein (Homo sapiens (Human), UniProt P03952); experiment: Determination of the IC50 for plasma kallikrein; type: biochemical; conditions: 37° C., read-out: IC50 (human PKal)
Chain of Human plasma kallikrein (P03952 391-638): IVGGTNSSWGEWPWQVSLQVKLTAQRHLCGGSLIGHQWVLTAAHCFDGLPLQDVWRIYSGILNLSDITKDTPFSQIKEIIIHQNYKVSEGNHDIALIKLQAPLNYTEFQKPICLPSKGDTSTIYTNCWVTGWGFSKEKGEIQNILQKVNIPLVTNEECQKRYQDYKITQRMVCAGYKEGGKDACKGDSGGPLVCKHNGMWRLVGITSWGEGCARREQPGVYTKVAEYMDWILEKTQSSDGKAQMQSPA
Chain of Human plasma kallikrein (P03952 20-390 partner): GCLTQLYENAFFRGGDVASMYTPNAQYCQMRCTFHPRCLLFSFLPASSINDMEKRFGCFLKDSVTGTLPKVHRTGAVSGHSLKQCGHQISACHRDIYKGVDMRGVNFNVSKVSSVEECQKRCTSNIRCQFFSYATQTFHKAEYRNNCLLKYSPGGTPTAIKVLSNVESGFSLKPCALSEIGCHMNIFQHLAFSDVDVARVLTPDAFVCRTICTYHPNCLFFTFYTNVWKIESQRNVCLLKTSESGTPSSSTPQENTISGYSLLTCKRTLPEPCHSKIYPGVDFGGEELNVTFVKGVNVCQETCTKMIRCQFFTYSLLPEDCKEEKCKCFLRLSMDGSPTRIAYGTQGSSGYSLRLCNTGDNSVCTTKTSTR
Procedure, shortened: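 Residual activity (initial rate, absorbance at 410 nm) gave the IC50. Reactions at 37° C combined human plasma kallikrein, substrate H-DPro-Phe-Arg-AFC and a range of inhibitor concentrations.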

[3] = Determination of thermodynamic solubility in phosphate buffer; type: physicochemical; conditions: pH 7.4, aqueous buffer, thermodynamic from solid, ammonium phosphate buffer pH7.4, 290 mOsm, 37° C., nominal 1 mg/mL, read-out: Solubility in PO4 buffer
Procedure: Determination of Thermodynamic Solubility in Phosphate Buffer
The thermodynamic solubility of compound was determined in Ammonium Phosphate Buffer (pH7.4, 290 mOsm). Compounds were made up at a nominal concentration of 1 mg/mL, vortexed then placed on a shaker for 1 h, 37° C. at approximately 950 rpm. Following incubation samples were transferred to eppendorf tubes and centrifuged at 15,000 g (r.c.f.) for 10 minutes at 37° C. The concentration of compound in the supernatant was determined by LC-MS/MS analysis using a calibration line prepared from a DMSO stock.

[4] = target: Human KLK1 (Homo sapiens (Human), UniProt P06870); experiment: Determination of the IC50 for KLK1; type: biochemical; conditions: Human KLK1, 37° C., substrate H-DVal-Leu-Arg-AFC; Table 13
Chain of Human KLK1 (P06870 25-262): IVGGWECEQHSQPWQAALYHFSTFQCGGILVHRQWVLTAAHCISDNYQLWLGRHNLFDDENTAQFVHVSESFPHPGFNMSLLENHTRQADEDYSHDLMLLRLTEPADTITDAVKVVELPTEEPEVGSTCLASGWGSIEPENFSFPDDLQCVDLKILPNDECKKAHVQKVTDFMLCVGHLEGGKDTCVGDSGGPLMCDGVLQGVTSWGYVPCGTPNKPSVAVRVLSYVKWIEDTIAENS
Procedure, shortened: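 IC50 values reflect residual human KLK1 activity, read as initial rate from optical absorbance change at 410 nm. Incubations ran at 37° C with H-DVal-Leu-Arg-AFC as substrate across a compound concentration series.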

[5] = fluorogenic substrate H-DPro-Phe-Arg-AFC

SMILES	solubility [1] [µM]	IC50 [2, 5] [nM]	solubility at 1 h [3] [µg/mL]	IC50 [4] [nM]	IC50 ([2]; substrate H-DPro-Phe-Arg-AFC) [nM]
CCOc1ccc(C[C@@H](NC(=O)c2ccc(Cl)cc2Cl)C(=O)N[C@@H](Cc2ccccc2)C(=O)NCc2ccc(CN)cc2)cc1 [Example 58, N-[(R)-1-[(S)-1-(4-Aminomethyl-benzylcarbamoyl)-2-phenyl-ethylcarbamoyl]-2-(4-ethoxy-phenyl)-ethyl]-2,4-dichloro-benzamide]	36 (≈ 23.3 µg/mL)	170	4.1 (≈ 6.33 µM)		
CCOc1ccc(C[C@@H](NC(=O)c2ccc(Cl)cc2)C(=O)N[C@@H](Cc2ccccc2)C(=O)NCc2ccc(CN)cc2)cc1 [Example 55, N-[(R)-1-[(S)-1-(4-Aminomethyl-benzylcarbamoyl)-2-phenyl-ethylcarbamoyl]-2-(4-ethoxy-phenyl)-ethyl]-4-chloro-benzamide]	36 (≈ 22.1 µg/mL)	31	1.5 (≈ 2.45 µM)		
CCOc1ccc(C[C@@H](NC(=O)c2ccc(F)c(F)c2)C(=O)N[C@@H](Cc2ccccc2)C(=O)NCc2ccc(CN)cc2)cc1 [Example 59, N-[(R)-1-[(S)-1-(4-Aminomethyl-benzylcarbamoyl)-2-phenyl-ethylcarbamoyl]-2-(4-ethoxy-phenyl)-ethyl]-3,4-difluoro-benzamide]	36 (≈ 22.1 µg/mL)	78	7.7 (≈ 12.5 µM)		
CCOc1ccc(C[C@@H](NC(=O)c2cccc(Cl)c2)C(=O)N[C@@H](Cc2ccccc2)C(=O)NCc2ccc(CN)cc2)cc1 [Example 88, N-[(R)-1-[(S)-1-(4-Aminomethyl-benzylcarbamoyl)-2-phenyl-ethylcarbamoyl]-2-(4-ethoxy-phenyl)-ethyl]-3-chloro-benzamide]			0.2 (≈ 0.326 µM)	> 10000	90
CCOc1ccc(C[C@@H](NC(=O)c2ccno2)C(=O)N[C@@H](Cc2cccnc2)C(=O)NCc2ccc(CN)cc2)cc1 [Example 174, Isoxazole-5-carboxylic acid [(R)-1-[(S)-1-(4-aminomethyl-benzylcarbamoyl)-2-pyridin-3-yl-ethylcarbamoyl]-2-(4-ethoxy-phenyl)-ethyl]-amide]			233 (≈ 408 µM)	> 10000	45
CCOc1ccc(C[C@@H](NC(=O)c2cccs2)C(=O)N[C@@H](Cc2cccnc2)C(=O)NCc2ccc(CN)cc2)cc1 [Example 162, Thiophene-2-carboxylic acid [(R)-1-[(S)-1-(4-aminomethyl-benzylcarbamoyl)-2-pyridin-3-yl-ethylcarbamoyl]-2-(4-ethoxy-phenyl)-ethyl]-amide]			69.7 (≈ 119 µM)	> 10000	10
CCOc1ccc(C[C@@H](NC(=O)c2ccccn2)C(=O)N[C@@H](Cc2ccccc2)C(=O)NCc2ccc(CN)c(Cl)c2)cc1 [Example 159, Pyridine-2-carboxylic acid [(R)-1-[(S)-1-(4-aminomethyl-3-chloro-benzylcarbamoyl)-2-phenyl-ethylcarbamoyl]-2-(4-ethoxy-phenyl)-ethyl]-amide]			1.15 (≈ 1.87 µM)	> 10000	15
CCOc1ccc(C[C@@H](NC(=O)c2ccncc2)C(=O)N[C@@H](Cc2ccccc2)C(=O)NCc2ccc(CN)cc2)cc1 [Example 71, N-[(R)-1-[(S)-1-(4-Aminomethyl-benzylcarbamoyl)-2-phenyl-ethylcarbamoyl]-2-(4-ethoxy-phenyl)-ethyl]-isonicotinamide]			22.1 (≈ 38.1 µM)	> 10000	77
CCOc1ccc(C[C@@H](NC(=O)c2ccncc2)C(=O)N[C@@H](Cc2csc3ccccc23)C(=O)NCc2ccc(CN)cc2)cc1 [Example 178, N-[(R)-1-[(S)-1-(4-Aminomethyl-benzylcarbamoyl)-2-benzo[b]thiophen-3-yl-ethylcarbamoyl]-2-(4-ethoxy-phenyl)-ethyl]-isonicotinamide]			1.54 (≈ 2.42 µM)	> 10000	42
CCOc1ccc(C[C@@H](NC(=O)c2ccccc2)C(=O)N[C@@H](Cc2ccc(F)cc2)C(=O)NCc2ccc(CN)cc2)cc1 [Example 143, N-[(R)-1-[(S)-1-(4-Aminomethyl-benzylcarbamoyl)-2-(4-fluoro-phenyl)-ethylcarbamoyl]-2-(4-ethoxy-phenyl)-ethyl]-benzamide]			2.86 (≈ 4.79 µM)	> 10000	83
CCOc1ccc(C[C@@H](NC(=O)c2sccc2Cl)C(=O)N[C@@H](Cc2ccccc2)C(=O)NCc2ccc(CN)cc2)cc1 [Example 116, 3-Chloro-thiophene-2-carboxylic acid [(R)-1-[(S)-1-(4-aminomethyl-benzylcarbamoyl)-2-phenyl-ethylcarbamoyl]-2-(4-ethoxy-phenyl)-ethyl]-amide]			1.39 (≈ 2.24 µM)	6300	18
CCOc1ccc(C[C@@H](NC(=O)c2ccccc2)C(=O)N[C@@H](Cc2cccs2)C(=O)NCc2ccc(CN)cc2)cc1 [Example 150, N-[(R)-1-[(S)-1-(4-Aminomethyl-benzylcarbamoyl)-2-thiophen-2-yl-ethylcarbamoyl]-2-(4-ethoxy-phenyl)-ethyl]-benzamide]			0.12 (≈ 0.205 µM)	> 10000	51
CCOc1ccc(C[C@@H](NC(=O)c2[nH]ccc2C)C(=O)N[C@@H](Cc2ccccc2)C(=O)NCc2ccc(CN)cc2)cc1 [Example 124, 3-Methyl-1H-pyrrole-2-carboxylic acid [(R)-1-[(S)-1-(4-aminomethyl-benzylcarbamoyl)-2-phenyl-ethylcarbamoyl]-2-(4-ethoxy-phenyl)-ethyl]-amide]			64.5 (≈ 111 µM)	8400	20
CCOc1ccc(C[C@@H](NC(=O)c2cccs2)C(=O)N[C@@H](Cc2ccccc2)C(=O)NCc2ccc(CN)cc2)cc1 [Example 73, Thiophene-2-carboxylic acid [(R)-1-[(S)-1-(4-aminomethyl-benzylcarbamoyl)-2-phenyl-ethylcarbamoyl]-2-(4-ethoxy-phenyl)-ethyl]-amide]			5.1 (≈ 8.72 µM)	9300	25
CCOc1ccc(C[C@@H](NC(=O)c2ccno2)C(=O)N[C@@H](Cc2ccccc2)C(=O)NCc2ccc(CN)cc2)cc1 [Example 79, Isoxazole-5-carboxylic acid [(R)-1-[(S)-1-(4-aminomethyl-benzylcarbamoyl)-2-phenyl-ethylcarbamoyl]-2-(4-ethoxy-phenyl)-ethyl]-amide]			2.4 (≈ 4.21 µM)	8600	38
CCOc1ccc(C[C@@H](NC(=O)c2ccc(F)cc2)C(=O)N[C@@H](Cc2ccccc2)C(=O)NCc2ccc(CN)cc2)cc1 [Example 99, N-[(R)-1-[(S)-1-(4-Aminomethyl-benzylcarbamoyl)-2-phenyl-ethylcarbamoyl]-2-(4-ethoxy-phenyl)-ethyl]-4-fluoro-benzamide]			2.88 (≈ 4.83 µM)	> 10000	95
CCOc1ccc(C[C@@H](NS(=O)(=O)c2ccc(Cl)cc2)C(=O)N[C@@H](Cc2ccccc2)C(=O)NCc2ccc(CN)cc2)cc1 [Example 84, (R)-N-[(S)-1-(4-Aminomethyl-benzylcarbamoyl)-2-phenyl-ethyl]-2-(4-chloro-benzenesulfonylamino)-3-(4-ethoxy-phenyl)-propionamide]			0.5 (≈ 0.77 µM)	1200	219
